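Assay format: 96-well plates, 48-hour exposure. GI50 marks 50% less growth. Definition used: TGI = concentration required for complete inhibition of growth.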
Legend:
Assay in all cases: inhibition of tumour cell growth, NCI panel, 48 h
A549 NSCLC = tested on: A549 NSCLC
COLO 205 colon = tested on: COLO 205 colon
IGROV1 ovarian = tested on: IGROV1 ovarian
NCI-H522 lung = tested on: NCI-H522 lung
OVCAR-3 ovarian = tested on: OVCAR-3 ovarian
SF-268 CNS = tested on: SF-268 CNS
SF-295 CNS = tested on: SF-295 CNS
SN12C renal = tested on: SN12C renal
T-47D breast = tested on: T-47D breast
UACC-257 melanoma = tested on: UACC-257 melanoma

Row | Compound | GI50 (A549 NSCLC) [µM] | TGI (A549 NSCLC) [µM] | GI50 (COLO 205 colon) [µM] | TGI (COLO 205 colon) [µM] | GI50 (IGROV1 ovarian) [µM] | TGI (IGROV1 ovarian) [µM] | GI50 (NCI-H522 lung) [µM] | GI50 (OVCAR-3 ovarian) [µM] | TGI (OVCAR-3 ovarian) [µM] | GI50 (SF-268 CNS) [µM] | TGI (SF-268 CNS) [µM] | GI50 (SF-295 CNS) [µM] | TGI (SF-295 CNS) [µM] | GI50 (SN12C renal) [µM] | TGI (SN12C renal) [µM] | GI50 (T-47D breast) [µM] | TGI (T-47D breast) [µM] | GI50 (UACC-257 melanoma) [µM] | TGI (UACC-257 melanoma) [µM] | TGI (NCI-H522 lung) [µM]
1 | O=C(Nc1ccc(I)cc1F)c1cc(F)ccc1O | 2.24 | > 100 | 3.88 | 15.6 | 0.404 | > 100 | 0.304 | 0.395 | > 56.4 | 0.513 | > 31.1 | 1.86 | 3.74 | 0.354 | 3.77 | 0.313 | 3 | 0.392 | 2.89 | 
2 | CCOC(=O)CCC(NC(=O)c1ccc(Nc2nc3cc(N)cc(N)c3nc2-c2ccccc2)cc1)C(=O)OCC (centres undefined) | 27.8 | > 100 | > 29.7 | > 100 | 22.6 | > 94.7 | 27.9 | 13.4 | 39.4 | 34.2 | > 100 | > 42 | > 66.3 | 26.2 | 58.1 | 6.7 | > 22.1 | 6.04 | 13.7 | > 100
3 | C/C(=C\COc1ccc2ccc(=O)oc2c1)CCC(=O)C(C)(C)O |  | > 100 |  | 44.4 |  | > 100 |  |  | 46.4 |  | > 100 |  | > 100 |  | 58.4 |  | > 100 |  | > 100 | 43.6
4 | COc1cc2cc(Oc3ccc(NC(=O)Nc4cc(C(F)(F)F)cc(C(F)(F)F)c4)cc3)c(C)nc2cc1OCCN1CCCCC1 | 1.8 | 3.62 | 1.89 | 3.62 | 1.35 | 2.79 | 1.72 | 1.64 | 3.03 | 1.69 | 3.37 | 1.83 | 3.38 | 1.68 | 3.22 | 1.85 | 3.77 | 1.98 | 3.97 | 3.46
5 | Clc1ccc2c(NCCNc3nc(Cl)nc4ccccc34)ccnc2c1 | 1.4 | 3.04 | 0.863 | 2.32 | 1.13 | 2.7 | 1.3 | 1.29 | 2.68 | 1.89 | 3.84 | 1.75 | 3.26 | 1.48 | 3.2 | 1.39 | 3.34 | 1.89 | 3.54 | 2.76
6 | S=C1NC2=C(CCOc3c2ccc2ccccc32)C(c2ccc(Cl)cc2)N1 (centres undefined) | 45.1 | > 100 | 24.5 | > 100 | 52.8 | > 100 | 25.1 | 20.9 | 70.6 | 39.2 | > 100 | 31.9 | > 100 | 25.8 | 66 | 3.36 | 17.2 | 45.4 | > 100 | > 100
